According to US9884854B2, “N-[(pyrimidinylamino)propanyl]-and N[(pyrazinylamino)proppanyl]arylcarboxamides” (Boehringer Ingelheim International GmbH, priority 2016, dated 2018):

Columns and labels:
[1] = Assay C: metabolic stability in human liver microsomes (Human MST); type: in vitro ADME; details: pooled human liver microsomes, pH 7.6, 1 μM compound, 37° C., read-out: Human MST t1/2
Source text: Stability in human liver microsomes refers to the susceptibility of compounds to biotransformation in the context of selecting and/or designing drugs with favorable pharmacokinetic properties. The primary site of metabolism for many drugs is the liver. Human liver microsomes contain the cytochrome P450s (CYPs), and thus represent a model system for studying drug metabolization in vitro. Enhanced stability in human liver microsomes is associated with several advantages, including increased bioavailability and longer half-life, which can enable lower and less frequent dosing of patients. Thus, enhanced stability in human liver microsomes is a favorable characteristic for compounds that are to be used for drugs.
C. Assessment of Metabolic Stability in Human Liver Microsomes (Human MST)
The metabolic stability of the compounds according to the invention may be investigated as follows:
The metabolic degradation of the test compound is assayed at 37° C. with pooled human liver microsomes. The final incubation volume of 100 μL per time point contains TRIS buffer pH 7.6 at room temperature (0.1 M), MgCl2 (5 mM), microsomal protein (1 mg/mL) and the test compound at a final concentration of 1 μM. Following a short pre-incubation period at 37° C., the reactions are initiated by addition of beta-nicotinamide adenine dinucleotide phosphate, reduced form (NADPH, 1 mM), and terminated by transferring an aliquot into solvent after different time points. After centrifugation (10000 g, 5 min), an aliquot of the supernatant is assayed by LC-MS/MS for the amount of parent compound. The half-life (t1/2) is determined by the slope of the semi-logarithmic plot of the concentration-time profile.

human orexin 2 receptor = target: T1, human orexin 2 receptor (Homo sapiens, UniProt O43614); assay: Assay B: OX2R IP1 (in vitro OX2R potency); type: cell-based; details: 0.5 nM Orexin A concentration
T1 construct: stably expressing the full-length human orexin 2 receptor and the aequorin photoprotein; expressed in transfected cells; host or cells: CHO-K1 (CHO-K1/hOx2), co-expressing aequorin
T1 sequence (O43614 1-444): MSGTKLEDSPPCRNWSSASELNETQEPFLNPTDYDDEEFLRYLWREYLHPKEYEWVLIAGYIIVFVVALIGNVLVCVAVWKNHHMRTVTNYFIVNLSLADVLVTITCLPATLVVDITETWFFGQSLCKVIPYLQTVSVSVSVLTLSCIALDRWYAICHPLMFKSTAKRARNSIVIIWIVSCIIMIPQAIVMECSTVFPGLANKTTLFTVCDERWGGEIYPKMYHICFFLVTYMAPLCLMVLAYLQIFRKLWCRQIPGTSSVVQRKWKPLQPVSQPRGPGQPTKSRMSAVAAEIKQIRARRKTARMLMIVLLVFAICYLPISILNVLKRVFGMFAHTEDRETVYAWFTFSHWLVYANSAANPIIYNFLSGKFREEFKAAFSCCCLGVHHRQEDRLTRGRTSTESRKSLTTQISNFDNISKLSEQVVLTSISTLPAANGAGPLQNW
Source text: Activation of the orexin receptors expressed in cell lines results in an increase in intracellular IP3 concentration. IP1, a downstream metabolite of IP3, accumulates in cells following receptor activation and is stable in the presence of LiCl. Using Homogeneous Time-Resolved Fluorescence technology with Lumi4-Tb cryptate (commercially available from Cisbio Bioassay.) and a suitable fluorescence plate reader. […] Chem. Genomics 2009, 3, 22-32. This technique is used to characterize pharmacological modification of the orexin receptors.
B. In Vitro Testing of OX2R Potency: OX2R IP1
IP1 measurements are performed in CHO-K1 cells stably expressing the full-length human orexin 2 receptor and the aequorin photoprotein. Cells are cultivated in Ham's nutrient mixture F12 medium with 10% fetal calf serum, in a 37° C., 95% humidity and 5% CO2 incubator. The CHO-K1/hOx2 cell mass is expanded to larger cell numbers. The cells are obtained as frozen cells in cryo-vials and stored until use at −150° C. The viability of the cells after thawing is >90%. In preparation for the assay, 24 hours before the assay, the cells are thawed at 37° C. and immediately diluted with cell culture medium. After centrifugation, the cell pellet is resuspended in medium and then distributed into the assay plates with a density of 5000 cells/25 μL per well. The plates are incubated for one hour at room temperature to reduce edge effects before they are incubated for 24 hours at 37° C./5% CO2. Compounds are prepared by a 8-point serial dilution in DMSO and a final dilution step into assay buffer (HBSS with 20 mM HEPES, 0.1% BSA and 50 mM LiCl, pH 7.4) to ensure a final DMSO concentration of 1% in the assay. On the day of the assay, cells in the plate are washed twice with 60 μL assay buffer (20 μL buffer remained in the wells after washing), followed by adding 5 μL per well of compounds diluted in assay buffer. After 15 minutes of incubation at room temperature 5 μL per well of Orexin A peptide (final concentration: 0.5 nM) dissolved in assay buffer is added to the assay plate. The assay plate is incubated for 60 minutes at 37° C. Then 5 μl per well of Anti-IP1-Cryptate Tb solution and 5 μl per well of IP1-d2 dilution are added to all well of the plate and the plate is incubated for a further 60 minutes light protected at room temperature. The emission at 615 nm and 665 nm (Excitation wavelength: 320 nm) are measured using an EnVision reader (PerkinElmer). The ratio between the emission at 665 nm and 615 is calculated by the reader.
8-point four parametric non-linear curve fitting and determination of IC50 values and Hill slopes is performed using a regular analysis software e.g. AssayExplorer (Accelrys). In order to establish an agonist concentration independent parameter, Kb values are calculated using the following equation: IC50/((2+(A/EC50)n)^1/n−1) (with A=concentration agonist, EC50=EC50 agonist, n=Hill slope agonist) (see P. Leff, I. G. Dougall, Trends Pharmacol. Sci. 1993, 14(4), 110-112).
Kb values from Assay A (OX1R) and Assay B (OX2R) can then provide a selectivity ratio which is independent of the agonist (Orexin A) concentration.

human MDR1 P-gp = assay: Assay D: efflux in MDCK cells transfected with the human MDR1 gene; type: in vitro ADME, canine; details: dog; MDCK-MDR1 monolayers, pH 7.4, 37° C.; read-out: MDCK efflux ratio (BA/AB)
Description: The MDCK assay provides information on the potential of a compound to pass the blood brain barrier. Permeability measurements across polarized, confluent MDCK-MDR1 cell monolayers grown on permeable filter supports are used as an in vitro absorption model: apparent permeability coefficients (PE) of the compounds across the MDCK-MDR1 cell monolayers are measured (pH 7.4, 37° C.) in apical-to-basal (AB) and basal-to-apical (BA) transport direction. The AB permeability (PEAB) represents drug absorption from the blood into the brain and the BA permeability (PEBA) drug efflux from the brain back into the blood via both, passive permeability as well as active transport mechanisms mediated by efflux and uptake transporters that are expressed on the MDCK-MDR1 cells, predominantly by the overexpressed human MDR1 P-gp. Identical or similar permeabilities in both transport directions indicate passive permeation, vectorial permeability points to additional active transport mechanisms. Higher PEBA than PEAB (PEBA/PEAB>5) indicates the involvement of active efflux mediated by MDR1 P-gp, which might compromises the goal to achieve sufficient brain exposure. Therefore this assay provides valuable support for selection of compounds applicable for further in vivo testing. High permeability not limited by efflux at the blood brain barrier is a favourable characteristic for compounds that are to be used for drugs acting primarily in the CNS
D. Assessment of Efflux in Madin-Darby Canine Kidney (MDCK) Cells Transfected with the Human MDR1 Gene
Apparent permeability coefficients (PE) of the compounds across the MDCK-MDR1 cell monolayers are measured (pH 7.4, 37° C.) in apical-to-basal (AB) and basal-to-apical (BA) transport direction. AB permeability (PEAB) represents drug absorption from the blood into the brain and BA permeability (PEBA) drug efflux from the brain back into the blood via both passive permeability as well as active transport mechanisms mediated by efflux and uptake transporters that are expressed on the MDCK-MDR1 cells, predominantly by the overexpressed human MDR1 P-gp. The compounds are assigned to permeability/absorption classes by comparison of the AB permeabilities with the AB permeabilities of reference compounds with known in vitro permeability and oral absorption in the human. Identical or similar permeabilities in both transport directions indicate passive permeation, vectorial permeability points to additional active transport mechanisms. Higher PEBA than PEAB indicates the involvement of active efflux mediated by MDR1 P-gp. Active transport is concentration-dependently saturable.
MDCK-MDR1 cells (1-2×10e5 cells/1 cm2 area) are seeded on filter inserts (Costar transwell polycarbonate or PET filters, 0.4 μm pore size) and cultured (DMEM) for 7 days. Subsequently, the MDR1 expression is boosted by culturing the cells with 5 mM sodium butyrate in full medium for 2 days. Compounds are dissolved in appropriate solvent (like DMSO, 1-20 mM stock solutions). Stock solutions are diluted with HTP-4 buffer (128.13 mM NaCl, 5.36 mM KCl, 1 mM MgSO4, 1.8 mM CaCl2, 4.17 mM NaHCO3, 1.19 mM Na2HPO4×7H2O, 0.41 mM NaH2PO4×H2O, 15 mM HEPES, 20 mM glucose, 0.25% BSA, pH 7.4) to prepare the transport solutions (0.1-300 μM compound, final DMSO<=0.5%). The transport solution (TL) is applied to the apical or basolateral donor side for measuring A-B or B-A permeability (3 filter replicates), respectively. The receiver side contains the same buffer as the donor side. Samples are collected at the start and end of experiment from the donor and at various time intervals for up to 2 hours also from the receiver side for concentration measurement by HPLC-MS/MS or scintillation counting. Sampled receiver volumes are replaced with fresh receiver solution.

OX2R = target: T2, OX2R (Homo sapiens, UniProt O43614); details: cited from earlier work
T2 sequence (O43614 1-444): T1 sequence (O43614 1-444)

OX1R = target: T3, OX1R (Homo sapiens, UniProt O43613); details: cited from earlier work
T3 sequence (O43613 1-425): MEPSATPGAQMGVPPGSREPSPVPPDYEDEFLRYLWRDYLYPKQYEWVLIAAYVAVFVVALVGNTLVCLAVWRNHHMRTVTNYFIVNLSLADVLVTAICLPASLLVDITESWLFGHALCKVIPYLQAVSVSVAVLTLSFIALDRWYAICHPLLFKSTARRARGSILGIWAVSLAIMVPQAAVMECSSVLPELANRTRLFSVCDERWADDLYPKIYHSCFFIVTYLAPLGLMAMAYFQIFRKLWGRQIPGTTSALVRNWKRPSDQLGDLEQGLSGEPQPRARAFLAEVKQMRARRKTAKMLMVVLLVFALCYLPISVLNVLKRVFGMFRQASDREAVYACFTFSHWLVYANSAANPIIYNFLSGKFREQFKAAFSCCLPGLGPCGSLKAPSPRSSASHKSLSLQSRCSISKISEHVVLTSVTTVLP

[2] = as described in WO03/051872 (page 16-18)
[3] = corresponds to pKb described in WO03/051872

| Structure (SMILES) | half-life at 1 μM [1] [h] | Kb (human orexin 2 receptor) [µM] | efflux ratio (human MDR1 P-gp) | OX2R pKb (OX2R; [2]) | OX2R Kb (OX2R; [3]) [nM] | OX1R pKb (OX1R; [2]) | OX1R Kb (OX1R; [3]) [nM] |
| --- | --- | --- | --- | --- | --- | --- | --- |
| CCN(C(=O)c1cccc(Cl)c1-n1nccn1)[C@@H](C)CNc1ncc(C(F)(F)F)cn1 [Example 3] | 1.4 | 0.00627 | – | – | – | – | – |
| Cc1nc(C(=O)N(C)CCNc2ncc(Br)cn2)c(-c2ccc(F)cc2)s1 [Example 6 in WO03/051872] | – | – | 0.8 | <6.6 to 7.4 | >250 to 40 | 6.4 to 7.4 | 400 to 40 |
| CCN(C(=O)c1cc(F)cc(F)c1-n1nccn1)[C@@H](C)CNc1ncc(C(F)(F)F)cn1 [Example 6] | > 2 | 0.0531 | – | – | – | – | – |
